Measured values published in article PMC8658016, “Identification of New Compounds with Anticonvulsant and Antinociceptive Properties in a Group of 3-substituted (2,5-dioxo-pyrrolidin-1-yl)(phenyl)-Acetamides” (International Journal of Molecular Sciences, 2021).
Where two headings read alike, the source gives them in different places.

Key:
hepatoma HepG2 cells = experiment: Hepatotoxicity, HepG2 viability (MTS); assay type: cell-based; settings: 72 h; viability affected at 100 µM only
rats = experiment: Carrageenan-induced paw edema; assay type: in vivo, rat; settings: 80 mg/kg
Source text: To test the anti-inflammatory activity and the potential to attenuate inflammatory pain, we tested compound 14 in the model of carrageenan-induced aseptic inflammation. In this model, the subplantar injection of carrageenan induced an edema, mechanical, and thermal hyperalgesia. […] In our opinion, the most surprising and interesting was the long-lasting anti-edematous effect. It may result from the pharmacokinetic properties of compound 14, but also from its unique mechanism. Since inflammation is one of the critical components of neuropathy, the anti-inflammatory activity of compound 14 may be a valuable and distinctive property from classical ASDs used to treat neuropathic pain [33]. […] The pain threshold reached 87.3%, 90.9%, and 89.7% of its initial value 3, 6, and 24 h after carrageenan injection, respectively. […] The initial latency for compound 14-treated animals was 8.95 ± 0.4 s. The administration of compound 14 changed the values to 127.0%, 102.0%, 79.8%, 83.8%, and 164.4% of the initial value 1, 2, 3, 6-, and 24-h following carrageenan injection, respectively.
The experiments were conducted on adult male Albino Swiss mice (CD-1, 18–25 g) and male Wistar rats (Krf:(WI) WU), 180–250 g) as described previously. The minimum number of animals used needed to obtain definite and normally distributed results with the utilized test. Behavioral measures were scored by trained observers, which were blind to experimental conditions. The following devices were used in the experiments: Analgesy Meter (37215, Ugo Basile), Plantar Test Apparatus (EFV5, Commat Ltd., Turkey), Plethysmometer (Plethysmometer 7140, Ugo Basile), Electronic von Frey unit (BIOSEB, France). All procedures were performed according to the European Union Directive of 22 September 2010 (2010/63/EU) and approved by the Local Ethics Committee for Experiments on Animals in Krakow, Poland (resolution no. 105/2016).
Figure 8 Effect of compound 14 on carrageenan-induced oedema (A), mechanical hyperalgesia (B), and thermal hyperalgesia (C), developed after subplantar injection of 1% carrageenan in rats. Data are expressed as means ± S.E.M. for 6 animals; 0—the initial value considered as the paw volume (A) or nociceptive reaction (B,C) before carrageenan administration. Statistical significance compared to vehicle-treated animals (control): * p < 0.05, ** p < 0.01, *** p < 0.001, **** p < 0.0001. Statistical analysis: two-way ANOVA post hoc Bonferroni test. Statistical significance in different time points of control group: ^# p < 0.05, ^## p < 0.01, ^### p < 0.001. Statistical analysis: one-way ANOVA, followed by Dunnett’s multiple comparison test (GraphPad Prism 8.0.1).

mice = experiment: Formalin test (tonic pain); assay type: in vivo; settings: Mus musculus, ip, mice i.p.
Protocol: The formalin test is a commonly used model of pain also useful in screening the analgesic activity of novel compounds. A subcutaneous formalin injection results in a biphasic nociceptive response; a phase one (5 min) followed by a quiescent period (10 min) and then phase two (15 min). C-fibers’ initial and direct stimulation in phase one led to peripheral inflammation accompanied by ongoing peripheral nerve activity and central sensitization during phase two. Moreover, a formalin injection induces persistent changes similar to those observed in nerve injury and subsequent neuropathic pain [27].
The experiments were conducted on adult male Albino Swiss mice (CD-1, 18–25 g) and male Wistar rats (Krf:(WI) WU), 180–250 g) as described previously. The minimum number of animals used needed to obtain definite and normally distributed results with the utilized test. Behavioral measures were scored by trained observers, which were blind to experimental conditions. […]
Data were presented as means ± standard error of the mean (S.E.M). […] Statistically significant differences between groups were calculated using one-way analysis of variance (ANOVA) and the post hoc Dunnett’s multiple comparison test or two-way analysis of variance (ANOVA) and the post hoc Tukey’s comparison when appropriate. […]

[1] = tested on: Cav1.2 channel (dihydropyridine site, antagonist radioligand); experiment: Radioligand binding, Cav1.2 channel (dihydropyridine site); settings: rat cerebral cortex

CN(C)C1CC(=O)N(C(C(=O)N2CCN(c3cccc(C(F)(F)F)c3)CC2)c2ccccc2)C1=O.Cl (stereo not shown) [Compound 14, 3-(Dimethylamino)-1-(2-oxo-1-phenyl-2-(4-(3-(trifluoromethyl)phenyl)-piperazin-1-yl)ethyl)pyrrolidine-2,5-dione hydrochloride]
hepatotoxicity (HepG2 viability) (hepatoma HepG2 cells): generally non-toxic
reduction of paw edema (rats; 1 h after carrageenan): 36.8%
reduction of paw edema (rats; 2 h after carrageenan): 55.8%
reduction of paw edema (rats; 3 h after carrageenan): 62.9%
reduction of paw edema (rats; 6 h after carrageenan): 68.6%
reduction of paw edema (rats; 24 h after carrageenan): 74.3%
ED50 (mice; 0–5 min after formalin, read-out: ED50 formalin test, phase I): 85.1 mg/kg
ED50 (mice; 15–30 min after formalin, read-out: ED50 formalin test, phase II): 56.1 mg/kg
% Inhibition of Control-Specific Binding, Cav1.2 channel (dihydropyridine site, antagonist radioligand) ([1]; 10 µM): 6.0%
% Inhibition of Control-Specific Binding, Cav1.2 channel (dihydropyridine site, antagonist radioligand) ([1]; 50 µM): 75.4%
